# Measurements from patent US9023857B2, “Substituted 6-(2-aminobenzylamino)purine derivatives, their use as medicaments and preparations containing these compounds” (Univerzita Palackeho V Olomouci, priority 2009, dated 2015).
# Legend:
# MV = MV syncytium reduction assay in B95a cells; type: cell-based, Measles virus wildtype strain WTFb
# [1] = tested on: HIV promoter (pHIV-lacZ, extrachromosomal) in H1299-TAT cells; experiment: β-galactosidase expression from pHIV-lacZ transiently transfected to H1299-TAT; settings: H1299-TAT cells (FIG. 11)
# [2] = tested on: p53-responsive reporter pRGCΔfoslacZ in murine fibroblasts T22lacZ; experiment: p53-dependent transcriptional activity, β-galactosidase reporter in T22lacZ cells; type: cell-based; settings: 5 μM
# [3] = tested on: CMV promoter (plasmid pCMV-lacZ); experiment: β-galactosidase expression from transiently transfected pCMV-lacZ in MCF-7 and T47D; settings: transiently transfected MCF-7 and T47D (FIG. 9)
# CDK9/cyclin T = CDK9/cyclin T (Homo sapiens, UniProt P50750); experiment: CDK inhibition assay, CDK9/cyclin T
# Chain of CDK9/cyclin T (P50750 whole entry, species assumed): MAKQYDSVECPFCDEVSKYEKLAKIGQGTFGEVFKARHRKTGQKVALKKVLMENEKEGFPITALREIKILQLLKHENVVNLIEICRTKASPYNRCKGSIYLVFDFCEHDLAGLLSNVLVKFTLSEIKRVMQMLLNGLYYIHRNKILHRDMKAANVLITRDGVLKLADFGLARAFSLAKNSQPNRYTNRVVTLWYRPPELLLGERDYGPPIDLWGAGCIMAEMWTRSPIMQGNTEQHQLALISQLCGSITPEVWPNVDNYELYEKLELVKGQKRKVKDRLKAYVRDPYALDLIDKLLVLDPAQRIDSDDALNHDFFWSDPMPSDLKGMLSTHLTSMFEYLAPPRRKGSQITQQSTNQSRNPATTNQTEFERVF
# Chain of CDK9/cyclin T (O60563 whole entry partner, species assumed): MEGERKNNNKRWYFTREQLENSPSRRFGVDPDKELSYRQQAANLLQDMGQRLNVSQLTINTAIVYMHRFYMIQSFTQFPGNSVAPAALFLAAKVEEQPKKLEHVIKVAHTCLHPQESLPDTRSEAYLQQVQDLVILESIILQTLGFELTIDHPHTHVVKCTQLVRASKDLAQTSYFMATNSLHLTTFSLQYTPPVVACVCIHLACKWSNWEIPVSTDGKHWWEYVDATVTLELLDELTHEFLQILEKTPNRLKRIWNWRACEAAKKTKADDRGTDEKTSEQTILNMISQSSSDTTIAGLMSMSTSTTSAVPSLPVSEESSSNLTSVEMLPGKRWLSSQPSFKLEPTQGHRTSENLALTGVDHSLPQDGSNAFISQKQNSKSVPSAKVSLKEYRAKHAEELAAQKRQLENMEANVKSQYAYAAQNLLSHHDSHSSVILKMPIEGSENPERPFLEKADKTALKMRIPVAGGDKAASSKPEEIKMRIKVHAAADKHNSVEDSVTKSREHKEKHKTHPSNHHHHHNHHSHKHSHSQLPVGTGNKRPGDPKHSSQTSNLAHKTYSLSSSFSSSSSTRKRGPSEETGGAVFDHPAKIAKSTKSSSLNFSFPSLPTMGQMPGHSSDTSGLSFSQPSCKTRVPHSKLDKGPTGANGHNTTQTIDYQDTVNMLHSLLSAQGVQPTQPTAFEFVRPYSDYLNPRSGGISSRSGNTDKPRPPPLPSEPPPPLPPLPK
# [4] = tested on: p53 protein in osteosarcoma cell line HOS (mut p53); experiment: p53 protein expression in HOS cells (immunoblotting); type: cell-based, human; settings: HOS (mutant p53), 5 μM, 6, 12 and 24 hrs
# Description: (a) DO-1, DO-2 and 1801 monoclonal antibodies recognise the N-terminal region of p53 protein, monoclonal antibodies DO-11 and DO-12 recognise different epitopes in the core domain of p53 protein, monoclonal antibodies Bp53-10 and Pab421 recognise the C-terminal region of p53 protein. (b) Monoclonal antibody 118 recognises p21^WAF1.
# For direct immunoblotting, total cellular protein lysates were prepared by harvesting cells in hot Laemmli electrophoresis sample buffer. Proteins were then separated by SDS-polyacrylamide gel electrophoresis (SDS-PAGE) on 10% gel and transferred onto a nitrocellulose membrane in Bio.Rad Mini Trans-Blott Electrophoretic Transfer Cell for 2 hrs at 4° C. applying 150 mA in transfer buffer ([…], 190 mM glycine and 20% methanol). Prestained molecular weight markers (Bio-Rad) were run in parallel. […]
# First, we determined appropriate concentration of 103 and 105 for our experiments. The MCF-7 (wt p53) cells were treated for 12 hrs with increasing concentrations of 105 ranging from 1 to 100 μM and analysed for p53 protein expression using monoclonal antibody DO-1 (FIG. 3A). […] We analysed the expression of p53 protein in MCF-7 (wt p53), BT549 (mut p53) and BT474 (mut p53) breast cancer cell lines, in HT29 (mut p53) colorectal cancer cell line and in ostaosarcoma cell line HOS (mut p53). […]
# [5] = In vitro cytotoxic activity (Calcein AM, 72 hours), BJ; settings: human, BJ normal fibroblasts
# [6] = tested on: human T-lymphoblastoid leukaemic cell line CEM; experiment: In vitro cytotoxic activity (Calcein AM, 72 hours), CEM; settings: read-out: Cytotoxicity IC50 CEM
# [7] = tested on: human osteogenic sarcoma HOS; experiment: In vitro cytotoxic activity (Calcein AM, 72 hours), HOS; settings: read-out: Cytotoxicity IC50 HOS
# [8] = tested on: pRb (Ser780, Ser807, Thr821) in MCF7 cells; experiment: Immunoblot analysis of pRb phosphorylation in MCF7 cells; type: cell-based, human; settings: MCF7 cells treated for 24 h, immunoblot (FIG. 2)
# Description: Cell were detached with rubber policeman and washed three times with ice-cold PBS and lysed in buffer (50 mM Tris, pH 7.4, 250 mM NaCl, 5 mM EDTA, 50 mM NaF, 1 mM Na3VO4, 1% Nonidet P40) containing mixture of protease and phosphatase inhibitors (Sigma-Aldrich St Louis, Mo., USA). 20 μg of total proteins were separated by SDS-polyacrylamide gel electrophoresis (SDS-PAGE) on 8% or 10% gels and transferred onto nitrocellulose membranes. Membranes were blocked in 5% milk and 0.1% Tween 20 in PBS and probed overnight with specific monoclonal antibodies or rabbit polyclonal sera. Primary antibodies specific for RNA polymerase II (all from Santa Cruz Biotechnology, California, USA) included: (i) N-20 used at 1 μg/ml, (ii) H14, specific for form phosphorylated at phosphoserine 5, used at 6 μg/ml and (iii) H5, specific for form phosphorylated at phosphoserine 2 used at 4 μg/ml. Additional primary mAb used in immunblots included (iv) anti-p53 (DO-1, in house) used at 1 μg/ml, (v) anti-p21^WAF1 (118, in house), used at 1 μg/ml), (vi) anti-actin (A-2066, Sigma-Aldrich St Louis, Mo., USA) used at 1 μg/ml, (vii) anti-T-antigen (419, in house), used at 1 μg/ml. All primary antibodies were diluted in PBS containing 5% powdered milk; 0.1% Tween 20. […]
# [9] = tested on: human malignant melanoma G 361; experiment: In vitro cytotoxic activity (Calcein AM, 72 hours), G 361; settings: G-361, 72 h, read-out: Cytotoxicity IC50 G361
# [10] = tested on: HIV promoter integrated into cellular DNA (H1299-HIV cells); experiment: β-galactosidase expression from pHIV-lacZ incorporated to cellular genome (H1299-HIV); settings: HIV promoter integrated into cellular DNA (FIG. 11)
# [11] = tested on: A549 lung adenocarcinoma xenograft; experiment: In vivo anticancer activity, human xenograft model of A549 lung adenocarcinoma
# [12] = tested on: human erythroleukaemia K562; experiment: In vitro cytotoxic activity (Calcein AM, 72 hours), K562; settings: K562, 72 h, read-out: Cytotoxicity IC50 K-562
smiles,measurement,setting,value
"CCC(CO)Nc1nc(NCc2ccccc2N)c2ncn(C(C)C)c2n1 (stereo not shown) [Compound 105, 2-({6-[(2-aminobenzyl)amino]-9-isopropyl-9H-purin-2-yl}amino)butan-1-ol]",inhibition of virus replication (in words),MV,ineffective
same,"expression from pHIV-lacZ (extrachromosomal location), β-galactosidase readout",[1],inhibited
same,"blue-coloured cells (β-galactosidase activity, X-gal substrate)",[2],about 25%
same,expression from CMV promoter (β-galactosidase activity),[3],inhibited expression
same,IC50,CDK9/cyclin T,0.005 µM
same,induction of p53,[4],No induction
same,IC50 at 72 h,[5],> 167 µM
same,IC50,[6],4.5 µM
same,IC50,[7],11 µM
same,"phosphorylation of pRb at Ser780, Ser807 and Thr821",[8],Reduced phosphorylation
same,IC50,[9],8 µM
same,increase of reporter readout,[10],4 times
same,tolerability in animals,"[11]; CD-1 SCID mice, orally twice daily 150 mg/kg, Days 1-3 and 7-9",good tolerability
same,tumor volume analysis,"[11]; CD-1 SCID mice, orally twice daily 150 mg/kg, P=0.0409 versus vehicle",significantly smaller tumors
same,mean survival time,[11]; as printed in the A549 tumor volume paragraph,15.4 days
same,IC50,[12],12.8 µM
